Source: patent US20260184710A1, “CASITAS B-LINEAGE LYMPHOMA PROTOONCOGENE B (CBL-B) DEGRADING COMPOUNDS AND ASSOCIATED METHODS OF USE” (Arvinas Operations, Inc., priority 2022, published 2026)

Legend:
[1] = biological target: T1, Cbl-b (Homo sapiens, UniProt Q13191); assay: Cbl-b Degradation Method B (Nano-Glo HiBiT lytic detection); type: cell-based; details: Cbl-b-HiBit KI Jurkat Cells, incubated at least 6-24 hours; for DC50: half maximal degradation, read-out: Cbl-b Degredation Method B IC50; for Dmax / Cbl-b Degredation Method B Dmax (%): maximum degradation observed; for Dmax: read-out: Cbl-b Degredation Method B Dmax (%)
T1 construct: Cbl-b-HiBit KI Jurkat Cells were purchased from Promega; host or cells: Cbl-b-HiBiT knock-in Jurkat cells
T1 sequence (Q13191 whole entry): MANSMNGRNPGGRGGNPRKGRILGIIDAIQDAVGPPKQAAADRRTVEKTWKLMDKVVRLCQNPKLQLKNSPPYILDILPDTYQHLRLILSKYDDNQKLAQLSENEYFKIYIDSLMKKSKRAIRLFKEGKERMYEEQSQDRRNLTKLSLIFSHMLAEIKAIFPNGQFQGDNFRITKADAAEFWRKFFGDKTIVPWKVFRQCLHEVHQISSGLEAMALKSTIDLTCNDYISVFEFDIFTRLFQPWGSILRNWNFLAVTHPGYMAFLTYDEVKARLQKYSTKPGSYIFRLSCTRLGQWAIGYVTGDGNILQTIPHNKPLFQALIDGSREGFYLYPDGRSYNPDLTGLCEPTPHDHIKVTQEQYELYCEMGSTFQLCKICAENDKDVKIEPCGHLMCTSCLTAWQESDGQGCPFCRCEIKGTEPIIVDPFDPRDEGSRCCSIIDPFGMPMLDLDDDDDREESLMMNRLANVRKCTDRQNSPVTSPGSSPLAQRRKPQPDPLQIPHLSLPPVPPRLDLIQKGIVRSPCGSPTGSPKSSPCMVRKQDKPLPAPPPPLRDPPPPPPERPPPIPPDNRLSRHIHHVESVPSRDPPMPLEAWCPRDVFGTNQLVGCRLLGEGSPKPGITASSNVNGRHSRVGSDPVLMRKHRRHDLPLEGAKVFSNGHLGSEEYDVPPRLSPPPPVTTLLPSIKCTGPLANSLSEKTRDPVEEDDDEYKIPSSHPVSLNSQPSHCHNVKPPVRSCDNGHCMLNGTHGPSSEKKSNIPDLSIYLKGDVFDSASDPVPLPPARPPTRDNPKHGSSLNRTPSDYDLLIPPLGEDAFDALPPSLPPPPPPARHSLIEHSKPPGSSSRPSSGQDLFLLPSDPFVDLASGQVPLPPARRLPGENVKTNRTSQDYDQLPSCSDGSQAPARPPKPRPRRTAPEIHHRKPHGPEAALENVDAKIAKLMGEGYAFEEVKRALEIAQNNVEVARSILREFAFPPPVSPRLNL
How it was run: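 An 11-point, 3-fold compound dilution was applied for 6-24 hours to Jurkat cells carrying HiBiT-tagged endogenous Cbl-b. Lytic HiBiT luminescence quantified residual protein. Outputs are DC50 and Dmax relative to DMSO control.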

[2] = biological target: T1, Cbl-b; assay: Cbl-b Degradation Method A (FACS, anti-Cbl-b antibody staining); type: cell-based; details: Cbl-b-HiBit KI Jurkat Cells, incubated at least 20 hours; for DC50: half maximal degradation, read-out: Cbl-b Degredation Method A IC50; for Dmax: Jurkat, maximum degradation observed, read-out: Cbl-b Degredation Method A Dmax (%)
Protocol: Cbl-b Degradation Method A
Cbl-b-HiBit KI Jurkat Cells were purchased from Promega, and cell media consisted of RPMI 1640 with 10% FBS and 1% pen/strep. The cells were counted, measured for viability, and 100 μL of the cell solution was into 96 well flat bottom plates at a ratio of 290,000 cells per 100 μL. Compounds were dissolved in DMSO to make a 10 mM stock solution, which was diluted with cell media. 100 μL of the diluted compound mixture was added to the wells. The plate was incubated for at least 20 hours at 37° C. and 5% CO2. After incubation, the plate was shaken at 700-750 RMP for 15-30 minutes to ensure cells were removed from the wells. The wells were transferred to a 96-well v-bottom plate and spun for 2200 RPM for 3 minutes. The supernatant was removed, cells re-suspended in 100 μL of the fixative, and subsequently incubated at room temperature for 15 minutes. Afterwards, 150 μL of DPBS was added to each well, and the cells were centrifuged at 2500 RPM for 3 minutes. The supernatant was removed and the plate was chilled on ice for 2-3 minutes. While still on the ice, 100 μL of Perm III was added to each well, the wells mixed, and subsequently left on the ice for another 15 minutes. Afterwards, the plate was removed from the ice, 150 μL of DBPS was added to each well, and the cells centrifuged at 2700 RPM for 3 minutes. The supernatant was removed, and an additional 200 μL of was DPBS was added to each well, followed by centrifuging at 2700 RPM for 3 minutes, after which the supernatant was removed. The anti-Cbl-b antibody was diluted 1:200 in 1× Perm Wash buffer and 50 μL of the antibody mixture was added to each well and mixed. After addition, the plate was incubated for 35-45 minutes at room temperature. After incubation, 200 μL of DPBS was added to each wells, and the plate centrifuged at 2700 RPM for 3 minutes, followed by the removal of the supernatant. The washing step was repeated by adding 200 μL of DPBS to each wells followed by centrifuge at 2700 RPM for 3 minutes and removal of the supernatant. The a-Rabbit-AF488 antibody was diluted 1:1000 in Perm Wash buffer, 50 μL of the dilution added to each well, and mixed. After mixing, the plate was incubated for 30 minutes at room temperature in the dark. Subsequently, the supernatant was removed, and 200 μL of DBPS added to the cells, which were then centrifuged at 2900 RPM for 4 minutes. The supernatant was removed, and an additional 95 μL of DBPS was added to the wells and mixed. The cells were then transferred to a round bottom polypropylene plate and analyzed using FACS with the parameters below:
The concentration of an exemplary compound that leads to half maximal degradation (DC50) as well as the maximum degradation observed (Dmax, conventionally expressed as a percentage of control) is shown below in Table 2.

Row | SMILES | DC50 [1] [nM] | Dmax [1] [%] | DC50 [2] [nM] | Dmax [2] [%] | Cbl-b Degredation Method B Dmax (%) [1]
1 | COc1c(N2CCC(O[C@H]3CC[C@H](CN4CCN(Cc5cc6c(c(C(F)(F)F)c5)CN(c5cccc([C@]7(Cc8nncn8C)C[C@@H](C#N)C7)c5)C6=O)CC4)CC3)CC2)ccc2c1CN(C1CCC(=O)NC1=O)C2=O (some centres unmarked) [Example 199, (1r,3r)-3-[(4-methyl-4H-1,2,4-triazol-3-yl)methyl]-3-(3-{1-oxo-6-[(4-{[(1r,4r)-4-({1-[2-(2,6-dioxopiperidin-3-yl)-4-methoxy-1-oxo-2,3-dihydro-1H-isoindol-5-yl]piperidin-4-yl}oxy)cyclohexyl]methyl}piperazin-1-yl)methyl]-4-(trifluoromethyl)-2,3-dihydro-1H-isoindol-2-yl}phenyl)cyclobutane-1-carbonitrile] | < 5 | 35 to 70 | < 5 | > 70 | 
2 | CC1c2nc(N3CCC(O[C@H]4CC[C@H](CN5C[C@H]6C[C@@H]5CN6c5cc6c(c(C(F)(F)F)c5)CN(c5cccc([C@]7(Cc8nncn8C)C[C@@H](C#N)C7)c5)C6=O)CC4)CC3)ccc2C(=O)N1C1CCC(=O)NC1=O (stereo partly drawn) [Example 181, (1r,3r)-3-[(4-methyl-4H-1,2,4-triazol-3-yl)methyl]-3-(3-{1-oxo-6-[(1R,4R)-5-{[(1r,4r)-4-({1-[6-(2,6-dioxopiperidin-3-yl)-7-methyl-5-oxo-5H,6H,7H-pyrrolo[3,4-b]pyridin-2-yl]piperidin-4-yl}oxy)cyclohexyl]methyl}-2,5-diazabicyclo[2.2.1]heptan-2-yl]-4-(trifluoromethyl)-2,3-dihydro-1H-isoindol-2-yl}phenyl)cyclobutane-1-carbonitrile] | < 5 | 35 to 70 | < 5 | 35 to 70 | 
3 | Cn1cnnc1CC1(c2cccc(N3Cc4c(cc(CN5CCC(CN6CCC(C7CCN(c8ccc9c(c8)C(=O)N(C8CCC(=O)NC8=O)C9=O)CC7)CC6)CC5)cc4C(F)(F)F)C3=O)c2)COC1 (centres unmarked) [Example 77, 2-(2,6-dioxopiperidin-3-yl)-5-{1′-[(1-{[2-(3-{3-[(4-methyl-4H-1,2,4-triazol-3-yl)methyl]oxetan-3-yl}phenyl)-3-oxo-7-(trifluoromethyl)-2,3-dihydro-1H-isoindol-5-yl]methyl}piperidin-4-yl)methyl]-[4,4′-bipiperidin]-1-yl}-2,3-dihydro-1H-isoindole-1,3-dione] | > 500 |  | > 500 |  | 
4 | C[C@H]1C[C@@H](CN2CCN(c3ccc4c(c3)C(=O)N(C3CCC(=O)NC3=O)C4=O)CC2)CN(Cc2cc3c(c(C(F)(F)F)c2)CN(c2cccc(C4(Cc5nncn5C)COC4)c2)C3=O)C1 (stereo partly drawn) [Example 85, 2-(2,6-dioxopiperidin-3-yl)-5-(4-{[(3R,5S)-5-methyl-1-{[2-(3-{3-[(4-methyl-4H-1,2,4-triazol-3-yl)methyl]oxetan-3-yl}phenyl)-3-oxo-7-(trifluoromethyl)-2,3-dihydro-1H-isoindol-5-yl]methyl}piperidin-3-yl]methyl}piperazin-1-yl)-2,3-dihydro-1H-isoindole-1,3-dione] | 5 to 50 | > 70 | 5 to 50 |  | 
5 | Cn1cnnc1CC1(c2cccc(N3Cc4c(cc(CN5CCC(COCCOCCOc6cccc7c6C(=O)N(C6CCC(=O)NC6=O)C7=O)CC5)cc4C(F)(F)F)C3=O)c2)COC1 (centres unmarked) [Example 91, 2-(2,6-dioxopiperidin-3-yl)-4-(2-{2-[(1-{[2-(3-{3-[(4-methyl-4H-1,2,4-triazol-3-yl)methyl]oxetan-3-yl}phenyl)-3-oxo-7-(trifluoromethyl)-2,3-dihydro-1H-isoindol-5-yl]methyl}piperidin-4-yl)methoxy]ethoxy}ethoxy)-2,3-dihydro-1H-isoindole-1,3-dione] | > 500 |  | > 500 |  | 
6 | Cn1cnnc1CC1(c2cccc(N3Cc4c(cc(CN5CC6(CCN(C[C@H]7CC[C@H](OC8CCN(c9ccc%10c(c9F)CN(C9CCC(=O)NC9=O)C%10=O)CC8)CC7)CC6)C5)cc4C(F)(F)F)C3=O)c2)COC1 (some centres unmarked) [Example 6, 3-[4-fluoro-1-oxo-5-(4-{[(1r, 4r)-4-[(2-{[2-(3-{3-[(4-methyl-4H-1,2,4-triazol-3-yl)methyl]oxetan-3-yl}phenyl)-3-oxo-7-(trifluoromethyl)-2,3-dihydro-1H-isoindol-5-yl]methyl}-2,7-diazaspiro[3.5]nonan-7-yl)methyl]cyclohexyl]oxy}piperidin-1-yl)-2,3-dihydro-1H-isoindol-2-yl]piperidine-2,6-dione] |  |  | < 5 | > 70 | 

The remaining lines, values ahead:

Row | DC50 [1] [nM] | Dmax [1] [%] | DC50 [2] [nM] | Dmax [2] [%] | Cbl-b Degredation Method B Dmax (%) [1] | SMILES
7 | < 5 |  | 50 to 500 | > 70 | C (C ≤ 35) | CC(C)n1c(=O)n(C2CCC(=O)NC2=O)c2cccc(N3CCC(O[C@H]4CC[C@H](CN5CCC6(CC5)CN(Cc5cc7c(c(C(F)(F)F)c5)CN(c5cccc([C@]8(Cc9nncn9C)C[C@@H](C#N)C8)c5)C7=O)C6)CC4)CC3)c21 (some centres unmarked) [Example 320, (1r,3r)-3-[(4-methyl-4H-1,2,4-triazol-3-yl)methyl]-3-(3-{1-oxo-6-[(7-{[(1r,4r)-4-({1-[1-(2,6-dioxopiperidin-3-yl)-2-oxo-3-(propan-2-yl)-2,3-dihydro-1H-1,3-benzodiazol-4-yl]piperidin-4-yl}oxy)cyclohexyl]methyl}-2,7-diazaspiro[3.5]nonan-2-yl)methyl]-4-(trifluoromethyl)-2,3-dihydro-1H-isoindol-2-yl}phenyl)cyclobutane-1-carbonitrile]
8 | < 5 |  | 5 to 50 | 35 to 70 | C (C ≤ 35) | CC(C)n1c(=O)n(C2CCC(=O)NC2=O)c2cccc(N3CCC(O[C@H]4CC[C@H](CN5CCCN(Cc6cc7c(c(C(F)(F)F)c6)CN(c6cccc([C@]8(Cc9nncn9C)C[C@@H](C#N)C8)c6)C7=O)CC5)CC4)CC3)c21 (some centres unmarked) [Example 289, (1r,3r)-3-[(4-methyl-4H-1,2,4-triazol-3-yl)methyl]-3-(3-{1-oxo-6-[(4-{[(1r,4r)-4-({1-[1-(2,6-dioxopiperidin-3-yl)-2-oxo-3-(propan-2-yl)-2,3-dihydro-1H-1,3-benzodiazol-4-yl]piperidin-4-yl}oxy)cyclohexyl]methyl}-1,4-diazepan-1-yl)methyl]-4-(trifluoromethyl)-2,3-dihydro-1H-isoindol-2-yl}phenyl)cyclobutane-1-carbonitrile]
9 | < 5 | 35 to 70 | 5 to 50 | 35 to 70 |  | CC1c2nc(N3CCC(OC4CCC(CN5CCN(Cc6cc7c(c(C(F)(F)F)c6)CN(c6cccc(C8(Cc9nncn9C)COC8)c6)C7=O)C[C@H]5C)CC4)CC3)ccc2C(=O)N1C1CCC(=O)NC1=O (stereo partly drawn) [Example 238, 3-[7-methyl-5-oxo-2-(4-{[(1rs,4rs)-4-{[(2R)-2-methyl-4-{[2-(3-{3-[(4-methyl-4H-1,2,4-triazol-3-yl)methyl]oxetan-3-yl}phenyl)-3-oxo-7-(trifluoromethyl)-2,3-dihydro-1H-isoindol-5-yl]methyl}piperazin-1-yl]methyl}cyclohexyl]oxy}piperidin-1-yl)-5H,6H,7H-pyrrolo[3,4-b]pyridin-6-yl]piperidine-2,6-dione]
